Source: patent US20230203029A1 (priority 2020, published 2023)
Where two headings read alike, the source gives them in different places.

What was measured:
[1] = molecular target: T1, human MERTK cytoplasmic domain (Homo sapiens, UniProt Q12866); test: biochemical; settings: 30 uM ATP, read-out: Assay 1a Mer IC50 30 uM ATP
T1 construct: human MERTK cytoplasmic domain (Carna Biosciences 08-108); purchased Carna Biosciences 08-108
Method: Assay 1a—MERTK HTRF KinEASE-TK Assay
The enzymatic reaction was carried out for 30 min at room temperature. 10 μL TK Antibody-Cryptate/Streptavidin-XL665 (Cisbio 610SAXLG) was then added for 60 min, including EDTA containing detection buffer (Cisbio 62SDBRDF) to stop the reaction.

[2] = molecular target: T2, recombinant human MERTK expressed in live cells (HEK 293, MERTK-Nanoluc fusion vector) (Homo sapiens, UniProt Q12866); test: Assay 2 MERTK cellular target engagement (NanoBRET TE) assay; type: cell-based; settings: HEK 293 cells, tracer K9, 2 h at 37° C.; read-out: Assay 2 Cell TE MER IC50
T2 construct: host or cells: HEK 293
T2 sequence (Q12866 21-999): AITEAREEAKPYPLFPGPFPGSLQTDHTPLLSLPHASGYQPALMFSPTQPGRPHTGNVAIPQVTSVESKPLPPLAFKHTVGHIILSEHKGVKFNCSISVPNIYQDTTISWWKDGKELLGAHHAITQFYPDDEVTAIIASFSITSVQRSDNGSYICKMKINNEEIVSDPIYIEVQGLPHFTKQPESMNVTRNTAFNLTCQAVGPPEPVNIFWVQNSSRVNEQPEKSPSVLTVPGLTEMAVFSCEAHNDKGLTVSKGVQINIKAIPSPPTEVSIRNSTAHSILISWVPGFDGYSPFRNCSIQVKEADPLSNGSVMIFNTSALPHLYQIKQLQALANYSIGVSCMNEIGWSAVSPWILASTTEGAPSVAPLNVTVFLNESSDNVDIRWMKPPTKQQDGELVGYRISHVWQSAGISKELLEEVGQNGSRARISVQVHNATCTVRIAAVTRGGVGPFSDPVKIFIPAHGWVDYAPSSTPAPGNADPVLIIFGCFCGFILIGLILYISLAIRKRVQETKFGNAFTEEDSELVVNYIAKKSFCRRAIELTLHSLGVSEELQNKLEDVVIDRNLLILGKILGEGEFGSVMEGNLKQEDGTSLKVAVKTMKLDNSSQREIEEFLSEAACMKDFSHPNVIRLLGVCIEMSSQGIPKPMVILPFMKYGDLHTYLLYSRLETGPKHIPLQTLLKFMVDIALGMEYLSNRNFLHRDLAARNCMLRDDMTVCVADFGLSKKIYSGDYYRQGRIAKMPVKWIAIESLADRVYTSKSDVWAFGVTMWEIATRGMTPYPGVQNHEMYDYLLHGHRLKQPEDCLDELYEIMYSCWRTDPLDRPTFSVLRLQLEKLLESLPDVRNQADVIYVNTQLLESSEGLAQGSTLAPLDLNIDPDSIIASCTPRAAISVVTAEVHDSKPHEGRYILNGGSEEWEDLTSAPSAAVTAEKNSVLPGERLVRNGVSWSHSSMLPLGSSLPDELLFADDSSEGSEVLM

[3] = molecular target: T3, recombinant human AXL expressed in live cells (HEK, AXL-Nanoluc fusion vector) (Homo sapiens, UniProt P30530); test: Assay 3 AXL cellular target engagement (NanoBRET TE) assay; type: cell-based
T3 construct: host or cells: HEK
T3 sequence (P30530 26-894): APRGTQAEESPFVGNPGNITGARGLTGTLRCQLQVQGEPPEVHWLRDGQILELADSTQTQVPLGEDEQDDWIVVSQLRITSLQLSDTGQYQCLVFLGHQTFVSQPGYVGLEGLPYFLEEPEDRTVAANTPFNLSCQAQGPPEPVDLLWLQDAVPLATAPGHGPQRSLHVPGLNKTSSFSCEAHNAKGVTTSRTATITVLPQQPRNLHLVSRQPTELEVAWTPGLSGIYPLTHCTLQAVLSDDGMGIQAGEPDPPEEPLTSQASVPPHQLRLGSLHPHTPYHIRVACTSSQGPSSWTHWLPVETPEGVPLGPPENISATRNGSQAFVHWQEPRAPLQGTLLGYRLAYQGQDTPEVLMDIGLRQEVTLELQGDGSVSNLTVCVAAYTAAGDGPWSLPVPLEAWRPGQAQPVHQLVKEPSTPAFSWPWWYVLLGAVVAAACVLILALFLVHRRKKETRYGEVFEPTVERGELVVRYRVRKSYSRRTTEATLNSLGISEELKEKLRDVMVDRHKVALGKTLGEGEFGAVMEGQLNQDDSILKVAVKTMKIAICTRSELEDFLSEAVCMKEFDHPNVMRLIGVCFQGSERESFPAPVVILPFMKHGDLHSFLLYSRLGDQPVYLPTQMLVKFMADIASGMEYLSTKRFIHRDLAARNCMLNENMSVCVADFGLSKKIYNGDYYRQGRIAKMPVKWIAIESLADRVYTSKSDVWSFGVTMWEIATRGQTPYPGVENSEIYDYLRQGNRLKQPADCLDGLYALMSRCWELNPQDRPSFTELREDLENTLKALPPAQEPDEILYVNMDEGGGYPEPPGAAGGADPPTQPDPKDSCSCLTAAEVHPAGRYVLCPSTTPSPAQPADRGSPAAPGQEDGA
Method: Assay 3—AXL Cellular Target Engagement (TE) Assay
Compound affinities for recombinant human AXL expressed in live cells were assessed via the Promega NanoBRET TE assay technology. Human Embryonic Kidney (HEK) cells were transiently transfected with the AXL-Nanoluc fusion vector (Promega Cat NV1071) using Fugene HD reagent (Promega E2311). […] Incubations were conducted for 2 h at 37° C., after which 20 μl NanoGlo substrate/inhibitor mix (Promega N2161) was added to each well for 2-3 min. The plate was then read on a BMG Pherastar FSX using a NanoBRET filter to record donor emission at 450 nm and acceptor fluorophore emission at 610 nm. From this the BRET ratio (acceptor 610 nm/donor 450 nm) for each data point was calculated.

[4] = molecular target: T4, human AXL cytoplasmic domain (Homo sapiens, UniProt P30530); test: Assay 1b AXL HTRF KinEASE-TK assay; type: biochemical
T4 construct: human AXL cytoplasmic domain (Thermo Fisher A31515); purchased Thermo Fisher A31515
T4 sequence (P30530 473-894 limits assumed): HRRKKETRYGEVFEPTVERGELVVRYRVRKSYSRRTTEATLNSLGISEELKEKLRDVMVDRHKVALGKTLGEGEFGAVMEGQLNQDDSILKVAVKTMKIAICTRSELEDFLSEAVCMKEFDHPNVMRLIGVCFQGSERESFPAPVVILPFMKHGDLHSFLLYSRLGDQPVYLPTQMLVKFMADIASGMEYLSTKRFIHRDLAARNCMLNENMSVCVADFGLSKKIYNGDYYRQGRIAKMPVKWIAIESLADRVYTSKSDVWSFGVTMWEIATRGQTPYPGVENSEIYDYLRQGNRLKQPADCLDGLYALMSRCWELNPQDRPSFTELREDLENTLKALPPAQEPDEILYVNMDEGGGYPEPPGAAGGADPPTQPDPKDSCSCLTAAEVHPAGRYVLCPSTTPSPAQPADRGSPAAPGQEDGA
In short: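 Recombinant cytoplasmic domain (5 nM) in kinase buffer with 5 mM MgCl2, 1 mM MnCl2, 1 mM DTT, 50 nM SEB plus test compounds; reaction 30 min at room temperature. EDTA-containing detection with TK antibody-cryptate/streptavidin-XL665 for 60 min; HTRF 665/620 ratio read. IC50 from 4-parameter logistic fit with variable slope.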

[5] = * Maximal inhibition achieved 40%
[6] = HEK cells, tracer K5, 2 h at 37° C., read-out: Assay 3 Cell TE Axl IC50

SMILES: O=C(Nc1ccc(Nc2ccnc3cnc(N4CCOCC4)cc23)cc1)c1cccn(-c2ccccc2)c1=O [Example 2.1, N-[4-[(6-morpholino-1,7-naphthyridin-4-yl)amino]phenyl]-2-oxo-1-phenyl-pyridine-3-carboxamide]
- IC50 [1]: 196 nM
- IC50 [2]: 163 nM
- IC50 [3]: 1410 nM

SMILES: O=C(Nc1ccc(Nc2ccnc3cnc(N4CCCNCC4)cc23)cc1)c1cccn(-c2ccccc2)c1=O [Example 2.2, N-[4-[[6-(1,4-diazepan-1-yl)-1,7-naphthyridin-4-yl]amino]phenyl]-2-oxo-1-phenyl-pyridine-3-carboxamide]
- IC50 [1]: 54 nM
- IC50 [2]: 23.7 nM
- IC50 [3]: 189 nM

SMILES: CN1CCC(n2cc(-c3cc4c(Nc5ccc(NC(=O)c6cccn(-c7ccccc7)c6=O)cc5)ccnc4cn3)cn2)CC1 [Example 4.1, N-[4-[[6-[1-(1-methyl-4-piperidyl)pyrazol-4-yl]-1,7-naphthyridin-4-yl]amino]phenyl]-2-oxo-1-phenyl-pyridine-3-carboxamide]
- IC50 [1]: 37 nM
- IC50 [2]: 131 nM
- IC50 [3]: 133 nM

SMILES: O=C(N[C@H]1CC[C@H](O)CC1)c1cc2c(Nc3ccc(NC(=O)c4cccn(-c5ccccc5)c4=O)cc3)ccnc2cn1 [Example 5, N-(4-hydroxycyclohexyl)-4-[4-[(2-oxo-1-phenyl-pyridine-3-carbonyl)amino]anilino]-1,7-naphthyridine-6-carboxamide]
- IC50 [1]: 60 nM
- IC50 [2]: 96.1 nM
- IC50 [3]: 97.5 nM

SMILES: O=C(NOCCO)c1cc2c(Nc3ccc(NC(=O)c4cccn(-c5ccccc5)c4=O)cc3)ccnc2cn1 [Example 5.1, N-(2-hydroxyethoxy)-4-[4-[(2-oxo-1-phenyl-pyridine-3-carbonyl)amino]anilino]-1,7-naphthyridine-6-carboxamide]
- IC50 [1]: 70 nM
- IC50 [2]: 135 nM
- IC50 [3]: 335 nM

SMILES: NC(=O)c1cc2c(Nc3ccc(NC(=O)c4cccn(-c5ccccc5)c4=O)cc3)ccnc2cn1 [Example 5.2, 4-[4-[(2-oxo-1-phenyl-pyridine-3-carbonyl)amino]anilino]-1,7-naphthyridine-6-carboxamide]
- IC50 [1, 5]: 17 nM
- IC50 [2]: 174 nM
- IC50 [3]: 363 nM

SMILES: CNC(=O)c1cc2c(Nc3ccc(NC(=O)c4cccn(-c5ccccc5)c4=O)cc3)ccnc2cn1 [Example 5.3, N-methyl-4-[4-[(2-oxo-1-phenyl-pyridine-3-carbonyl)amino]anilino]-1,7-naphthyridine-6-carboxamide]
- IC50 [1, 5]: 11 nM
- IC50 [2]: 41.9 nM
- IC50 [3]: 46.7 nM

SMILES: CN1CCC(NC(=O)c2cc3c(Oc4ccc(NC(=O)c5cccn(-c6ccccc6)c5=O)cc4)ccnc3cn2)CC1 [Example 6, N-(1-methyl-4-piperidyl)-4-[4-[(2-oxo-1-phenyl-pyridine-3-carbonyl)amino]phenoxy]-1,7-naphthyridine-6-carboxamide]
- IC50 [1]: 52 nM
- IC50 [2]: 110 nM
- IC50 [3]: 110 nM

SMILES: O=C(Nc1ccc(Oc2ccnc3cnc(N4CCNCC4)cc23)cc1)c1cccn(-c2ccccc2)c1=O [Example 12, 2-Oxo-1-phenyl-N-[4-[(6-piperazin-1-yl-1,7-naphthyridin-4-yl)oxy]phenyl]pyridine-3-carboxamide]
- IC50 [1]: 11 nM
- IC50 [4]: 54 nM
- IC50 [2]: 80.4 nM
- IC50 [3, 6]: 114 nM

SMILES: CN1CCC(NC(=O)c2cc3c(Oc4ccc(NC(=O)c5cccn(-c6ccccc6)c5=O)nc4)ccnc3cn2)CC1 [Example 28.2, N-(1-methyl-4-piperidyl)-4-[[6-[(2-oxo-1-phenyl-pyridine-3-carbonyl)amino]-3-pyridyl]oxy]-1,7-naphthyridine-6-carboxamide]
- IC50 [1]: 31 nM
- IC50 [4]: 60 nM
- IC50 [2]: 95.6 nM
- IC50 [3]: 83.3 nM

SMILES: O=C(Nc1ccc(Oc2ccnc3cnc(N4CCNCC4)cc23)c(F)c1)c1cccn(-c2ccccc2)c1=O [Example 31, N-[3-fluoro-4-[(6-piperazin-1-yl-1,7-naphthyridin-4-yl)oxy]phenyl]-2-oxo-1-phenyl-pyridine-3-carboxamide]
- IC50 [1]: 6 nM
- IC50 [4]: 12 nM
- IC50 [2]: 26.1 nM
- IC50 [3]: 34.9 nM

SMILES: O=C(Nc1ccc(Oc2ccnc3cnc(N4CCNCC4)cc23)cn1)c1cccn(-c2ccccc2)c1=O [Example 32, 2-oxo-1-phenyl-N-[5-[(6-piperazin-1-yl-1,7-naphthyridin-4-yl)oxy]-2-pyridyl]pyridine-3-carboxamide]
- IC50 [1]: 17 nM
- IC50 [4]: 310 nM
- IC50 [2]: 80.8 nM
- IC50 [3, 6]: 127 nM
